# PMC4279401 (Oncotarget, 2014)
# Where “and” joins values, the source holds several entries; their conditions need not be identical. Equal entries are not always repeated. Entries after “also recorded” stand apart in the source; their conditions may differ. Where two headings read alike, the source gives them in different places.
# How the values were obtained:
# MDA-MB231 [1] = assay: Cell proliferation after DOT1L siRNA; format: cell-based, Human; details: MDA-MB231, siRNA treatment, in words
# Method: Human cell lines BT549, MDA-MB231, MCF-7, MDA-MB157, HCC70, A549 and NB4 were obtained from the American Type Culture Collection (ATCC) and cultured using ATCC recommended conditions. Primary antibodies against H3K79me2, H3K27me3, H3K4me3, H3K36me2, H4K20me3, H3K9me-pan were purchased from Cell Signaling (Danvers, MA). siRNA experiments were performed by transfecting MDA-MB-231 cells with X-tremeGENE Transfection Reagent (Roche) and 10 nM siRNA (Invitrogen), according to the manufacturer's protocol. The sequences for DOT1L siRNA (Invitrogen) were: • siRNA-1: 634-[…]; • siRNA-2: 117-[…]; • siRNA-3: 104-[…]; • siRNA-4: 470-[…]; • siRNA-5: 120-[…]. • siRNA-`mock represents an siRNA that has no homology to any vertebrate transcriptome.
# H3K79 methylation = assay: Western blot of histone methylation in MDA-MB231; format: cell-based, Human; details: for effect on H3K79 methylation: in words
# Method: Human cell lines BT549, MDA-MB231, MCF-7, MDA-MB157, HCC70, A549 and NB4 were obtained from the American Type Culture Collection (ATCC) and cultured using ATCC recommended conditions. Primary antibodies against H3K79me2, H3K27me3, H3K4me3, H3K36me2, H4K20me3, H3K9me-pan were purchased from Cell Signaling (Danvers, MA). siRNA experiments were performed by transfecting MDA-MB-231 cells with X-tremeGENE Transfection Reagent (Roche) and 10 nM siRNA (Invitrogen), according to the manufacturer's protocol.
# (§1) 10^6 cells/well were incubated with increasing concentrations of a compound for 5 days and histones extracted with the EpiQuik™ Total Histone Extraction Kit (Epigentek) according to the manufacturer's protocol. Equal amounts of histones (2μg) were separated on SDS-PAGE and transferred to PVDF membranes. The blots were probed with primary antibodies, followed by anti-rabbit IgG (Thermo Scientific) secondary antibodies. For western blot analysis of MDA-MB231 xenograft tumors, tumors were harvested and frozen in liquid nitrogen. Histones were extracted and analyzed by immunoblotting as described above.
# [2] = target: other lysine methyltransferases; details: read-out: Ki against other lysine methyltransferases; cited from earlier work
# EZH2 = details: read-out: Ki against EZH2; cited from earlier work
# H3K27 methylation [3] = assay: Western blot of histone methylation in BT549; format: cell-based, Human
# Method: as §1
# BT549 = assay: Cell proliferation, MTT assay; format: cell-based; details: Homo sapiens
# [4] = test system: MDA-MB231, BT549 and MCF-7 breast cancer cells; assay: Cell proliferation, MTT assay, DOT1L+ breast cancer cells; format: cell-based, Human; details: Homo sapiens
# MDA-MB231 [5] = assay: Cell proliferation, MTT assay; format: cell-based; details: Homo sapiens
# MCF-7 = assay: Cell proliferation, MTT assay; format: cell-based; details: Homo sapiens
# MDA-MB231 cells [6] = assay: ALDEFLUOR assay; format: cell-based, Human; details: in words
# Method: (§2) 5 × 10^4 cells/well were incubated with compounds for 14 days. The ALDH activity of cells was determined by using the ALDEFLUOR assay kit (StemCell Technologies) according to the manufacturer's instructions. Combinations of fluorochrome-conjugated monoclonal antibodies against human CD44-FITC and CD24-PE were obtained from BD Biosciences. Primary antibodies or the respective isotype controls (BD Biosciences) were added to the cell suspension, according to the manufacturer's recommendation, and incubated at 4°C for 20 min. Dead cells were eliminated using propidium iodide (Sigma). The labelled cells were analyzed on a FACS Calibur (BD Biosciences/Applied Biosystems).
# MDA-MB231 [7] = assay: Transwell cell migration assay; format: cell-based, Human; details: MDA-MB231, Transwell with and without Matrigel, in words
# Method: 5 × 10^4 cells/well were incubated with compounds for 14 days. For transwell migration assays, 5× 10^4 cells were plated in the top chamber with the non-coated membrane (24-well insert; pore size, […]; BD Biosciences). For invasion assays, 5× 10^4 cells were plated in the top chamber with Matrigel-coated membrane. The cells on the apical side of each insert were then scraped off after 22 h for both assays. The wells were washed with PBS, fixed with 100% methanol and stained with DAPI. Cells that had migrated to the basal side of the membrane were visualized and counted with a Nikon Eclipse TE2000-U microscope at 10×. Pictures of three random fields were obtained and the number of cells that had migrated quantified using ImageJ analysis software.
# MDA-MB231 cells [8] = assay: Apoptosis, Annexin V FACS; format: cell-based, Human
# Method: (§3) For apoptosis and cell cycle analysis, 10^5 cells/well were incubated with increasing concentrations of a compound for 7 or 10 days. Apoptosis was determined using the FITC Annexin V Apoptosis Detection Kit I (BD Bioscience) according to the manufacturer's protocol. Cells for cell cycle analysis were fixed in cold 70% ethanol at 4°C and stained with Propidium iodide (Sigma-Aldrich) (20 μg/ml) and RNase A (10 μg/ml) for 30min. Cells were analyzed using a FACS Calibur (BD Biosciences/Applied Biosystems) and data were processed using the program Flowjo (version7.6.5).
# [9] = in vivo; cited from earlier work
# MDA-MB231 cells [10] = assay: Microarray gene set enrichment analysis; format: cell-based, Human; details: 1 at 5 μM, 2 at 10 μM, in words
# Method: 10^5 cells/well were incubated with compounds for 14 days. Cells were lysed immediately in TRIzol® Reagent, frozen in liquid nitrogen, and shipped to Asuragen, Inc. (Austin, TX) for microarray experiments. RNA was isolated, amplified, and hybridized to Illumina Human HT-12 v4 arrays according to the manufacturer's protocol. Microarray data were log2 transformed and then normalized to have the same median for all the arrays. Moderate t-statistics were used to test if genes were differentially expressed between the groups of interest. Benjamini and Hochberg method was used to correct for multiple comparisons. R and Bioconductor packages were used for all the statistical analyses (http://cran.us.r-project.org/, http://www.bioconductor.org/). Gene set enrichment analysis was performed using GSEA software from Broad Institute (Boston, MA).
# MDA-MB231 cells [11] = assay: Cell cycle analysis, propidium iodide FACS; format: cell-based, Human; details: MDA-MB231, in words
# Method: as §3
# A549 = assay: Cell proliferation, MTT assay; format: cell-based, Human; details: in words
# MDA-MB231 cells [12] = assay: Quantitative PCR of EMT genes; format: cell-based, Human; details: MDA-MB231, qPCR, dose-dependent, in words
# Method: 10^4 cells/well were incubated with compounds for 14 days with media containing compounds replaced every 3-4 days. Total RNA was extracted from cells using RNeasy mini kit (Qiagen). 100-1000 ng of total RNA was reverse transcribed using iScript™ Reverse Transcription Supermix (Bio-Rad) according to the manufacturer's protocol. Quantitative real-time PCR was carried out using the RT^2 SYBR Green ROX™ qPCR Mastermix (Qiagen) according to the manufacturer's instructions. Measurements were performed in triplicate, using GAPDH or human 18S ribosomal RNA as a reference gene. The sequences of primers used are listed in the Supplementary Table. Real-time PCR was performed using the ABI Prism 7300 sequence detection system.
# MDA-MB231 cells [13] = assay: CD44/CD24 flow cytometry; format: cell-based, Human; details: MDA-MB231, FACS, in words
# Method: as §2
# [14] = test system: methylation at H3K4, H3K9, H3K27, H3K36 and H4K20; assay: Western blot of methylation at other histone lysines in MDA-MB231; format: cell-based, Human; details: at concentrations of <1 μM, in words
# Method: as §1
# H3K27 methylation [15] = assay: Western blot of histone methylation in MDA-MB231; format: cell-based; details: Homo sapiens, MDA-MB-231, Fig. 4b, read-out: IC50 against H3K27 methylation
# Method: as §1
compound,measurement,setting,value
siRNA-1: DOT1L siRNA (Invitrogen): 634-CGCGAGUUCAGGAAGUGGAUGAAAU (other strand not given here),effect on cell proliferation,MDA-MB231 [1],slowed down cell proliferation; also recorded: significantly inhibited cell proliferation
same,effect on H3K79 methylation,H3K79 methylation,significantly reduced H3K79 methylation
"Nc1ncnc2c1ncn2[C@@H]1O[C@H](CSCC[C@H](N)C(=O)O)[C@@H](O)[C@H]1O [SAH, S-adenosyl-homocycteine]",Ki,[2],> 1 µM
same,Ki,EZH2,7.5 µM
"Cc1cc(C)c(CNC(=O)c2cc(-c3ccc(CN4CCOCC4)cc3)cc3c2cnn3C2CCCC2)c(=O)[nH]1 [Compound 5, EPZ005687]",selectivity of histone methylation inhibition,"H3K27 methylation [3]; BT549, Western blot, in words",only inhibited H3K27 methylation
same,IC50,"H3K27 methylation [3]; Homo sapiens, BT-549, 5 days, breast cancer cells, Fig. 4d (BT549), read-out: IC50 of H3K27 methylation inhibition",~0.05 µM
same,EC50,"BT549; BT-549, 72 h, BT549, 3-day treatment, read-out: Anti-proliferative activity EC50",34 µM
same,EC50,"BT549; BT-549, 360 h, BT549, 15-day treatment, read-out: Anti-proliferative activity EC50",35 µM
same,EC50,"[4]; three breast cancer cells, regardless of the treatment durations, read-out: anti-proliferation EC50",11 to 35 µM
same,EC50,"MDA-MB231 [5]; MDA-MB-231, 72 h, MDA-MB231, 3-day treatment, read-out: Anti-proliferative activity EC50",11 µM
same,EC50,"MDA-MB231 [5]; MDA-MB-231, 360 h, MDA-MB231, 15-day treatment, read-out: Anti-proliferative activity EC50",13 µM
same,EC50,"MCF-7; MCF7, 72 h, MCF-7, 3-day treatment, read-out: Anti-proliferative activity EC50",28 µM
same,EC50,"MCF-7; MCF7, 360 h, MCF-7, 15-day treatment, read-out: Anti-proliferative activity EC50",12 µM
same,Ki,EZH2,0.024 µM
siRNA-3: DOT1L siRNA (Invitrogen): 104-CGCUGCCGGUCUACGAUAAACAUCA (other strand not given here),effect on cell proliferation,MDA-MB231 [1],did not significantly affect the growth
same,effect on H3K79 methylation,H3K79 methylation,considerably weaker inhibition
siRNA-2: DOT1L siRNA (Invitrogen): 117-CGAUAAACAUCACGAUGCUGCUCAU (other strand not given here),effect on cell proliferation,MDA-MB231 [1],did not significantly affect the growth
same,effect on H3K79 methylation,H3K79 methylation,considerably weaker inhibition
siRNA-4: DOT1L siRNA (Invitrogen): 470-CCCAGAUGAUUGAUGAGAUCAAGAU (other strand not given here),effect on cell proliferation,MDA-MB231 [1],inhibited cell proliferation
same,effect on H3K79 methylation,H3K79 methylation,significantly reduced H3K79 methylation
"CC(C)N(CCCNC(=O)Nc1ccc(C(C)(C)C)cc1)CC1OC(n2cnc3c(N)ncnc32)C(O)C1O (centres unmarked) [Compound 2, SYC-522]",ALDH+ cell population,MDA-MB231 cells [6],considerably reduced
same,cell migration and invasion,MDA-MB231 [7],reduced abilities of cell migration and invasion
same,apoptosis,"MDA-MB231 cells [8]; MDA-MB231, 2 μM, in words",negligible amount of apoptosis
same,apoptotic rate,"MDA-MB231 cells [8]; MDA-MB231, 10 μM",7.8% and ~ 8%
same,pharmacokinetics,[9],poor pharmacokinetics with short plasma half-lives
same,genes whose expression is low in breast CSCs (GSEA),MDA-MB231 cells [10],upregulation
same,pro-proliferation genes in the PAM50 gene set (GSEA),MDA-MB231 cells [10],downregulation
same,sub-G1 phase cell population,MDA-MB231 cells [11],increased sub-G1 phase cell population; also recorded: moderately increased pre-G phase cell population
same,activity against A549 cells,A549,negligible activity
same,gene expression of E-cadherin,MDA-MB231 cells [12],increase
same,"gene expression of TGF-β, Snail and Zeb",MDA-MB231 cells [12],significantly reduce
same,CD44+/CD24− cell population,MDA-MB231 cells [13],significantly decreased
same,cell population expressing high levels of CD24,MDA-MB231 cells [13],considerably more cells expressed higher levels of CD24; also recorded: increased cell population
"Nc1nccc2c1ncn2C1C=C(CO)C(O)C1O (centres unmarked) [Compound 4, 3-deazaneplanocin A]","inhibitory activity against methylation at H3K4, H3K9, H3K27, H3K36 and H4K20",[14],no or negligible inhibitory activities; also recorded: negligible effects
same,EC50,"BT549; BT-549, 72 h, read-out: Anti-proliferative activity EC50",> 20 µM
same,EC50,"BT549; BT-549, 360 h, read-out: EC50, 15-day treatment",0.065 µM
same,EC50,"[4]; 72 h, read-out: EC50, 3-day treatment",> 20 µM
same,EC50,"[4]; 360 h, read-out: anti-proliferation EC50",0.035 to 0.48 µM
same,IC50,H3K27 methylation [15],> 6 µM
same,EC50,"MDA-MB231 [5]; MDA-MB-231, 72 h, read-out: Anti-proliferative activity EC50",> 20 µM
same,EC50,"MDA-MB231 [5]; MDA-MB-231, 360 h, read-out: EC50, 15-day treatment",0.035 µM
same,EC50,"MCF-7; MCF7, 72 h, read-out: Anti-proliferative activity EC50",> 20 µM
same,EC50,"MCF-7; MCF7, 360 h, read-out: EC50, 15-day treatment",0.48 µM
same,IC50,"H3K79 methylation; Homo sapiens, MDA-MB-231, read-out: IC50 of H3K79 methylation inhibition",~0.05 µM
